In patent US7388017B2, “Inhibitors of serine proteases, particularly hepatitis C virus NS3 protease” (Vertex Pharmaceuticals Incorporated, priority 1996, dated 2008):
Read-outs that look alike come from different tables or passages of the source. Starred links: 1 amine or outer side, 2 acyl side, 3 side chain; linkers in the order of their positions; H or OH if unused. Non-standard residues stand in square brackets, D forms with d. Residues, ends and D or L forms follow the SMILES beside them. ξ: configuration not given here. *: point of attachment. ξ(3-Amino-2-oxopentanoyl) = CCC(N[*:1])C(=O)C(=O)[*:2]; Acetyl(3-pyridyl) = O=C(Cc1cccnc1)*; X41 = CCC(N*)C(=O)c1nc2ccccc2o1; NH(4-picolyl) = c1cc(CN*)ccn1; Hyp = O=C(O)[CH]1C[CH](O)CN1; NHPhenethyl = c1ccc(CCN*)cc1; Nicotinoyl = O=C(c1cccnc1)*; X44 = O=C(c1ccc2cnccc2n1)*; Morpholide = C1CN(*)CCO1; Abu = CC[CH](N)C(=O)O; X8 = O=C(CCN1CCCCC1)*; NHBn = c1ccc(CN*)cc1; Glycolyl = O=C(CO)*; X13 = COc1ccccc1CN*; X16 = C1COC(CN*)C1; Bn = c1ccc(C*)cc1; X37 = COCC(C)N*; NHPr = CCCN*

Biological target: T1, HCV NS3 protease (Hepatitis C virus genotype 1a, UniProt P27958)
T1 construct: more particularly HCV NS3 proteases
T1 sequence (P27958 1027-1208): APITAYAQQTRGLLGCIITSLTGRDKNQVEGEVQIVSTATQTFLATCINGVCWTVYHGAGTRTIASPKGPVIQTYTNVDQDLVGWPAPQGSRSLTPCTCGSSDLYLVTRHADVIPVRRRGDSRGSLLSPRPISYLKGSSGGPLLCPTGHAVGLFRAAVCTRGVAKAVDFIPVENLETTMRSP
Test: Enzyme inhibition of HCV NS3 serine protease (cleavage of peptide substrate / EDVV AbuC-p-nitroanilide, with or without NS4A)
Format: biochemical
Method: Cleavage reactions were quenched by the addition of an equal volume of a mixture of 10% TFA:acetonitrile (1:1) and activity was assessed on a reversed phase HPLC column (Rainin C18 Microsorb-MV, […], 4.6×250 mm; 0-50% acetonitrile, 0.1% TFA@ 3.33% min) using a Hewlett Packard 1050 instrument with auto-injection and diode array detection at 210 nm and 280 nm (where appropriate). Peptide elution fragments were collected and identified by mass spectrometry and N-terminal sequence analysis. Fragment identity and concentration was further verified by authentic, synthesized products. Initial rates of cleavage were determined at <20% substrate conversion and catalytic parameters were determined assuming Michaelis-Menten kinetics using the MultiFit program (Day Computing, Cambridge, Mass.).
Spectrophotometric assays were run in a 96-well microtiter plate at 30 C, using a SpectraMax 250 reader (Molecular Devices, Sunnyvale, Calif.) with kinetic capability. Cleavage of EDVV AbuC-p-nitroanilide (5A-pNA) substrate was performed with or without […] in the same buffer used for HPLC assays at 30 C, and pNA release was monitored at 405 nm. The extinction-coefficient of p-nitroaniline is independent of pH at values of 5.5. and above [Tuppy, H., et al., Hoppe-Seyler's Z. Physiol. Chem., 329, pp. 278-288 (1962)]; Raybuck and Luong, unpublished observations).
Kinetic constants for the rapid equilibrium ordered bisubstrate reaction were determined from rate vs [4A], [EDVV AbuC-pNA] data by non-linear least squares fitting to equation 1 [Morrison, J. F. Biochim. Biophys. Acta, 185, pp. 269-286 (1969)] as described in the text. Kii and Kis values for peptidyl inhibitors were determined from rate vs [inhibitor], [substrate] data and fitting to the equation for mixed inhibition: rate=Vmax[S]/{Km(1+[I]/Kis)+[S](1+[I]/Kii)} The commercial program KinetAsyst (StateCollege, Pa.) was used for both procedures. Ki values were calculated from rate vs [inhibitor] plots by a nonlinear least squares fit of the data to the equation of Morrison for tight binding competitive inhibition [Morrison, J. F. Biochim. Biophys. Acta, 185, pp. 269-286 (1969)]. The KineTic program (BioKin Ltd) was used for this procedure.
Ki values are expressed in μM. Category “A” indicates <1 μM inhibition; category “B” indicates 1-100 μM inhibition; category “C” indicates >100 μM.

[1] = Enzyme inhibition data, Ki from rate vs [inhibitor] plots, Morrison tight binding competitive inhibition fit, 30 C, pH 7.8, read-out: Ki

| Structure (SMILES) | Ki [1] [nM] | Ki [nM] |
| --- | --- | --- |
| CCOC(=O)C(F)(F)C(=O)C(CC)NC(=O)C1CC(OCc2ccccc2)CN1C(=O)C(NC(=O)C(NC(=O)c1cnccn1)C(C)C)C(C)C (stereo not shown) [Compound 76] | > 100000 | – |
| CCOP(=O)(OCC)C(CC)NC(=O)C1CC(OCc2ccccc2)CN1C(=O)C(NC(=O)C(NC(=O)c1cnccn1)C(C)C)C(C)C (stereo not shown) [Compound 77] | > 100000 | – |
| CCC(NC(=O)C1CC(OCc2ccccc2)CN1C(=O)C(NC(=O)C(NC(=O)c1cnccn1)C(C)C)C(C)C)C(=O)C(=O)CCc1ccccc1 (stereo not shown) [Compound 78] | 1000 to 100000 | – |
| CCC(NC(=O)C1CC(OCc2ccccc2)CN1C(=O)C(NC(=O)C(NC(=O)c1cnccn1)C(C)C)C(C)C)C(=O)C(=O)NCCc1ccccc1 (stereo not shown) [Compound 79] | 1000 to 100000 | – |
| CCC(C=O)NC(=O)C1CC(OCc2ccccc2)CN1C(=O)C(NC(=O)C(NC(C)=O)C(C)C)C(C)C (stereo not shown) [Compound 81] (Ac-VV[Hyp](Bn)[Abu]-aldehyde; configuration not given here) | 1000 to 100000 | – |
| CCC(C=O)NC(=O)C1CC(OCc2ccccc2)CN1C(=O)C(NC(=O)C(NC(=O)CO)C(C)C)C(C)C (stereo not shown) [Compound 82] (Glycolyl-VV[Hyp](Bn)[Abu]-aldehyde; configuration not given here) | 1000 to 100000 | – |
| CCC(C=O)NC(=O)C(CC(C)C)NC(=O)C(NC(=O)C(NC(=O)c1ccc2cnccc2n1)C(C)C)C(C)C (stereo not shown) [Compound 89] (X44-VVL[Abu]-aldehyde; configuration not given here) | 1000 to 100000 | – |
| CCC(C=O)NC(=O)C(CC(C)C)NC(=O)C(NC(=O)C(NC(=O)c1cccnc1)C(C)C)C(C)C (stereo not shown) [Compound 94] (Nicotinoyl-VVL[Abu]-aldehyde; configuration not given here) | 1000 to 100000 | – |
| CCC(C=O)NC(=O)C(CC(C)C)NC(=O)C(NC(=O)C(NC(=O)Cc1cccnc1)C(C)C)C(C)C (stereo not shown) [Compound 95] ({Acetyl(3-pyridyl)}-VVL[Abu]-aldehyde; configuration not given here) | 1000 to 100000 | – |
| CCC(C=O)NC(=O)C(CC(C)C)NC(=O)C(NC(=O)C(NC(=O)CCN1CCCCC1)C(C)C)C(C)C (stereo not shown) [Compound 97] (X8-VVL[Abu]-aldehyde; configuration not given here) | 1000 to 100000 | – |
| CCC(NC(=O)C(CC(C)C)NC(=O)C(NC(=O)C(NC(=O)C(CC(=O)O)NC(=O)C(CCC(=O)O)NC(C)=O)C(C)C)C(C)C)C(=O)C(=O)O (stereo not shown) [Compound 101] (Ac-EDVVL-{ξ(3-Amino-2-oxopentanoyl)}; configuration not given here) | < 1000 | – |
| CCC(NC(=O)C(CC(C)C)NC(=O)C(NC(=O)C(NC(=O)C(CC(=O)O)NC(=O)C(CCC(=O)O)NC(C)=O)C(C)C)C(C)C)C(=O)C(=O)NCc1ccccc1 (stereo not shown) [Compound 102] (Ac-EDVVL[ξ(3-Amino-2-oxopentanoyl)]-NHBn; configuration not given here) | < 1000 | – |
| CCC(NC(=O)C(CC(C)C)NC(=O)C(NC(=O)C(NC(=O)C(CC(=O)O)NC(=O)C(CCC(=O)O)NC(C)=O)C(C)C)C(C)C)C(=O)C(=O)NCc1ccccc1OC (stereo not shown) [Compound 103] (Ac-EDVVL[ξ(3-Amino-2-oxopentanoyl)]-X13; configuration not given here) | < 1000 | – |
| CCC(NC(=O)C(CC(C)C)NC(=O)C(NC(=O)C(NC(=O)C(CC(=O)O)NC(=O)C(CCC(=O)O)NC(C)=O)C(C)C)C(C)C)C(=O)C(=O)NCCc1ccccc1 (stereo not shown) [Compound 104] (Ac-EDVVL[ξ(3-Amino-2-oxopentanoyl)]-NHPhenethyl; configuration not given here) | < 1000 | – |
| CCCNC(=O)C(=O)C(CC)NC(=O)C(CC(C)C)NC(=O)C(NC(=O)C(NC(=O)C(CC(=O)O)NC(=O)C(CCC(=O)O)NC(C)=O)C(C)C)C(C)C (stereo not shown) [Compound 105] (Ac-EDVVL[ξ(3-Amino-2-oxopentanoyl)]-NHPr; configuration not given here) | < 1000 | – |
| CCC(NC(=O)C(CC(C)C)NC(=O)C(NC(=O)C(NC(=O)C(CC(=O)O)NC(=O)C(CCC(=O)O)NC(C)=O)C(C)C)C(C)C)C(=O)C(=O)NC(C)COC (stereo not shown) [Compound 106] (Ac-EDVVL[ξ(3-Amino-2-oxopentanoyl)]-X37; configuration not given here) | < 1000 | – |

| Structure (SMILES) | Ki [1] [nM] | Ki [nM] |
| --- | --- | --- |
| CCC(NC(=O)C(CC(C)C)NC(=O)C(NC(=O)C(NC(=O)C(CC(=O)O)NC(=O)C(CCC(=O)O)NC(C)=O)C(C)C)C(C)C)C(=O)C(=O)NCc1ccncc1 (stereo not shown) [Compound 107] (Ac-EDVVL[ξ(3-Amino-2-oxopentanoyl)]-{NH(4-picolyl)}; configuration not given here) | < 1000 | – |
| CCC(NC(=O)C(CC(C)C)NC(=O)C(NC(=O)C(NC(=O)C(CC(=O)O)NC(=O)C(CCC(=O)O)NC(C)=O)C(C)C)C(C)C)C(=O)C(=O)NCC1CCCO1 (stereo not shown) [Compound 108] (Ac-EDVVL[ξ(3-Amino-2-oxopentanoyl)]-X16; configuration not given here) | < 1000 | – |
| CCC(NC(=O)C(CC(C)C)NC(=O)C(NC(=O)C(NC(=O)C(CC(=O)O)NC(=O)C(CCC(=O)O)NC(C)=O)C(C)C)C(C)C)C(=O)C(=O)N1CCOCC1 (stereo not shown) [Compound 109] (Ac-EDVVL[ξ(3-Amino-2-oxopentanoyl)]-Morpholide; configuration not given here) | 1000 to 100000 | – |
| CCC(NC(=O)C(CC(C)C)NC(=O)C(NC(=O)C(NC(=O)c1cnccn1)C(C)C)C(C)C)C(=O)C(=O)NCc1ccccc1 (stereo not shown) [Compound 112] | 1000 to 100000 | – |
| CCC(NC(=O)C(CC(C)C)NC(=O)C(NC(=O)C(NC(=O)c1cnccn1)C(C)C)C(C)C)C(=O)C(=O)NCCc1ccc(OCc2ccccc2)c(OCc2ccccc2)c1 (stereo not shown) [Compound 113] | 1000 to 100000 | – |
| CCC(NC(=O)C(CC(C)C)NC(=O)C(NC(=O)C(NC(=O)c1cnccn1)C(C)C)C(C)C)C(=O)C(=O)NCc1ccccc1OC (stereo not shown) [Compound 114] | > 100000 | – |
| CCC(NC(=O)C(CC(C)C)NC(=O)C(NC(=O)C(NC(=O)c1cnccn1)C(C)C)C(C)C)C(=O)C(=O)NCCc1ccccc1 (stereo not shown) [Compound 115] | 1000 to 100000 | – |
| CCC(NC(=O)C(CC(C)C)NC(=O)C(NC(=O)C(NC(=O)c1cnccn1)C(C)C)C(C)C)C(=O)C(=O)N[C@H](C)c1ccccc1 (stereo partly shown) [Compound 116] | 1000 to 100000 | – |
| CCC(NC(=O)C(CC(C)C)NC(=O)C(NC(=O)C(NC(=O)c1cnccn1)C(C)C)C(C)C)C(=O)C(=O)N[C@@H](C)c1ccccc1 (stereo partly shown) [Compound 117] | 1000 to 100000 | – |
| CCC(NC(=O)C(CC(C)C)NC(=O)C(NC(=O)C(NC(=O)c1cnccn1)C(C)C)C(C)C)C(=O)C(=O)Nc1ccccc1 (stereo not shown) [Compound 119] | > 100000 | – |
| CCC(NC(=O)C(CC(C)C)NC(=O)C(NC(=O)C(NC(=O)c1cnccn1)C(C)C)C(C)C)C(=O)C(=O)N[C@H](CC)c1ccccc1 (stereo partly shown) [Compound 120] | – | 1000 to 100000 |
| CCC(NC(=O)C(CC(C)C)NC(=O)C(NC(=O)C(NC(=O)c1cnccn1)C(C)C)C(C)C)C(=O)C(=O)N[C@@H](CC)c1ccccc1 (stereo partly shown) [Compound 121] | – | > 100000 |
| CCC(NC(=O)C(CC(C)C)NC(=O)C(NC(=O)C(NC(=O)c1cnccn1)C(C)C)C(C)C)C(=O)C(=O)N(CC)CC (stereo not shown) [Compound 122] | > 100000 | – |
| CCC(NC(=O)C(CC(C)C)NC(=O)C(NC(=O)C(NC(=O)c1cnccn1)C(C)C)C(C)C)C(=O)C(=O)NCC(C)OC (stereo not shown) [Compound 123] | 1000 to 100000 | – |
| CCC(NC(=O)C(CC(C)C)NC(=O)C(NC(=O)C(NC(=O)C(CC(=O)O)NC(=O)C(N)CCC(=O)O)C(C)C)C(C)C)C(=O)c1nc2ccccc2o1 (stereo not shown) [Compound 124] (H-EDVVL-X41; configuration not given here) | 1000 to 100000 | – |
